{"source": "patent US11298337B2", "about": "“Parthenolide and its derivative for use in the treatment of axonal damage” (RUHR-UNIVERSITÄT BOCHUM, priority 2015, dated 2022)", "key": {"[1]": {"test_system": "dissociated DRG neurons from adult wild type mice and GSK3α/GSK3β double knock-in mice", "assay": "Axon growth of DRG neurons with SB216763 or nocodazole (modulation of microtubule dynamics)", "settings": "2 days in culture", "description": "Dorsal root ganglion (DRG) neurons were isolated from adult wild type (wt) and GSK3α/GSK3β mice as described in Gobrecht et al., Nature communications. […] DRGs (T8-L6) were harvested, incubated in 0.25% trypsin/EDTA (GE Healthcare, Chalfont St Giles, UK) and 0.3% collagenase type IA (Sigma, St. Louis, US-Mo.) in DMEM (Life Technologies, Carlsbad, US-Calif.) at 37° C. and 5% CO2 for 45 min and mechanically dissociated. Cells were resuspended in DMEM containing 10% fetal bovine serum (GE Healthcare) penicillin/streptomycin (500 U/ml; Merck Millipore, Billerica, US-MA) and 5-fluoro-2′-desoxyuridine (100 nM; Sigma). Cells were cultured on poly-D-lysine (PDL, 0.1 mg/ml, molecular weight <300,000 kDa; Sigma) and laminin (20 μg/ml; Sigma) coated 96 well plates (Nunc, Germany) at 37° C. and 5% CO2."}, "[2]": {"test_system": "dissociated DRG neurons from adult wild type mice", "assay": "Axon growth of dissociated adult DRG neurons in culture", "settings": "adult wt DRG neurons, 2 days in culture", "description": "DRGs (T8-L6) were harvested, incubated in 0.25% trypsin/EDTA (GE Healthcare, Chalfont St Giles, UK) and 0.3% collagenase type IA (Sigma, St. Louis, US-Mo.) in DMEM (Life Technologies, Carlsbad, US-Calif.) at 37° C. and 5% CO2 for 45 min and mechanically dissociated. Cells were resuspended in DMEM containing 10% fetal bovine serum (GE Healthcare) penicillin/streptomycin (500 U/ml; Merck Millipore, Billerica, US-MA) and 5-fluoro-2′-desoxyuridine (100 nM; Sigma). Cells were cultured on poly-D-lysine (PDL, 0.1 mg/ml, molecular weight <300,000 kDa; Sigma) and laminin (20 μg/ml; Sigma) coated 96 well plates (Nunc, Germany) at 37° C. and 5% CO2.\nThe effect of the tubulin carboxypeptidase (TCP) inhibitor parthenolide on axon growth of mature neurons was determined in dissociated DRG neurons from adult wild type mice as described above.\nDRGs (T8-L6) were harvested, incubated in 0.25% trypsin/EDTA (GE Healthcare, Chalfont St Giles, UK) and 0.3% collagenase type IA (Sigma, St. Louis, US-Mo.) in DMEM (Life Technologies, Carlsbad, US-Calif.) at 37° C. and 5% CO2 for 45 min and mechanically dissociated. […]\nAxonal growth was determined upon 48 h incubation by fixation in 4% PFA (Sigma) and immunocytochemical staining with antibodies against NeuN (1:2,000; Abcam, ab177487, Cambridge, UK) and βIII-tubulin (1:2,000; Covance, Princeton, US-N.J.). […]"}}}
{"smiles": "Cn1cc(C2=C(c3ccc(Cl)cc3Cl)C(=O)NC2=O)c2ccccc21", "note": "[SB216763]", "values": [{"measurement": "axon growth promoted by GSK3α^S/A/GSK3β^S/A", "setting": "[1]; 5 μM SB216763, double knock-in DRG neurons", "result": "efficiently blocked GSK3α^S/A/GSK3β^S/A promoted axon growth"}]}
{"smiles": "C=C(C(=O)O[C@H]1C/C(C)=C/CC/C(CO)=C/C2OC(=O)C(=C)[C@@H]21)C(O)CO", "note": "(stereo in doubt) [cnicin, [(1R,2S,4E,8Z,10S)-8-(hydroxymethyl)-4-methyl-13-methylidene-12-oxo-11-oxabicyclo[8.3.0]trideca-4,8-dien-2-yl] (3S)-3,4-dihydroxy-2-methylidene-butanoate]", "values": [{"measurement": "axon growth", "setting": "[2]; 0.1-100 nM, normalized to vehicle", "result": "significant, but less pronounced axon growth promotion"}, {"measurement": "concentration with strongest effects on axon growth", "setting": "[2]", "result": 0.5, "unit": "nM"}]}
{"smiles": "COC(=O)Nc1nc2ccc(C(=O)c3cccs3)cc2[nH]1", "note": "[nocodazole]", "values": [{"measurement": "axon growth, effect on GSK3α^S/A/GSK3β^S/A and parthenolide promoted growth", "setting": "[1]; 10 nM nocodazole, alone or with 1 nM parthenolide", "result": "abrogated the beneficial effects of both GSK3α^S/A/GSK3β^S/A and parthenolide to similar extent"}]}
